This assay deals with β-catenin-TCF-mediated reporter transcription activity in Colo 205 cells. Nature of the assay: Colo 205 reporter assay (TCF/LEF luciferase). In kind it is cell-based. The method in brief: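 Luciferase signal from a TCF/LEF-driven reporter, stably integrated in Colo 205 colon cancer cells, was measured 5 h after compound addition.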
For orientation: A reporter such as luciferase makes a cellular process visible.

[1] abbreviates: Homo sapiens, COLO 205, 5 h, Colo 205 TCF/LEF luciferase reporter, five hours after addition of compound, read-out: TCF reporter Colo205 IC50.

Read-outs that look alike come from different tables or passages of the source.

For `Cc1nc(NCc2cnn(Cc3ccc(C(F)(F)F)nc3)c2)nc2c1NC(=O)C1(CCOC1)N2C` (stereo not shown) [Compound 662, 4′,8′-dimethyl-2′-(((1-((6-(trifluoromethyl)pyridin-3-yl)methyl)-1H-pyrazol-4-yl)methyl)amino)-4,5,5′,8′-tetrahydro-2H,6′H-spiro[furan-3,7′-pteridin]-6′-one], where the note is “Colo 205 TCF/LEF luciferase reporter, five hours after addition of compound, read-out: TCF reporter Colo205 IC50”, the IC50 is 0.3 to 1 µM.
Turning to `C[C@H]1C(=O)Nc2cnc(NC3CN(Cc4ccccc4)C3)nc2N1C` [Compound 245, (7S)-2-((1-benzylazetidin-3-yl)amino)-7,8-dimethyl-7,8-dihydropteridin-6(5H)-one], the IC50 under setting [1] is ≥ 5 µM.
The same measure, in the same setting: to `CO[C@H](C)[C@H]1C(=O)Nc2c(C)nc(NCc3cnn(Cc4cc(F)c(F)c(F)c4)c3)nc2N1C` [Compound 659, (S)-7-((R)-1-methoxyethyl)-4,8-dimethyl-2-(((1-(3,4,5-trifluorobenzyl)-1H-pyrazol-4-yl)methyl)amino)-7,8-dihydropteridin-6(5H)-one] belongs < 0.3 µM.
The same measure, in the same setting: with `COc1c(F)cc(Cn2cc(CNc3nc(C)c4c(n3)N(C)[C@@H](C3CC3)C(=O)N4)cn2)cc1F` [Compound 457, (S)-7-cyclopropyl-2-(((1-(3,5-difluoro-4-methoxybenzyl)-1H-pyrazol-4-yl)methyl)amino)-4,8-dimethyl-7,8-dihydropteridin-6(5H)-one] the figure was < 0.3 µM.
In the case of `Cc1nc(N[C@H]2C[C@H](Oc3cc(F)c(F)c(F)c3)C2)nc2c1N(CCF)C(=O)[C@H](C)N2C` [Compound 381, (7S)-5-(2-fluoroethyl)-4,7,8-trimethyl-2-((trans-3-(3,4,5-trifluorophenoxy)-cyclobutyl)-amino)-7,8-dihydropteridin-6(5H)-one], the IC50 under setting [1] lay within 0.3 to 1 µM.
In the case of `CC[C@H]1C(=O)Nc2c(C)nc(N[C@H]3C[C@@H](Nc4cnc(C(F)(F)F)cn4)C3)nc2N1C` [Compound 648, (S)-7-ethyl-4,8-dimethyl-2-((cis-3-((5-(trifluoromethyl)pyrazin-2-yl)amino)cyclobutyl)amino)-7,8-dihydropteridin-6(5H)-one], under setting [1], the IC50 was < 0.3 µM.
For `CC[C@H]1C(=O)Nc2c(C)nc(NCc3cnn(Cc4cnc(Cl)c(F)c4)c3)nc2N1C` [Compound 426, (7S)-2-(((1-((6-chloro-5-fluoropyridin-3-yl)methyl)-1H-pyrazol-4-yl)methyl)amino)-7-ethyl-4,8-dimethyl-7,8-dihydropteridin-6(5H)-one], the IC50 under setting [1] is < 0.3 µM.
On to `Cc1nc(NCc2cnn(Cc3ccc(C(F)(F)F)nc3)c2)nc2c1NC(=O)[C@H](C(C)(C)O)N2C` [Compound 726, (S)-7-(2-hydroxypropan-2-yl)-4,8-dimethyl-2-(((1-((6-(trifluoromethyl)pyridin-3-yl)methyl)-1H-pyrazol-4-yl)methyl)amino)-7,8-dihydropteridin-6(5H)-one], for which the IC50 under setting [1] lay within 1 to 5 µM.
For the compound `Cc1nc(NCc2ccc(Nc3cnn(CC(F)(F)F)c3)nc2)nc2c1NC(=O)[C@H](C)N2C` [Compound 126, (7S)-4,7,8-trimethyl-2-(((6-((1-(2,2,2-trifluoroethyl)-1H-pyrazol-4-yl)amino)pyridin-3-yl)methyl)amino)-7,8-dihydropteridin-6(5H)-one], the IC50 under setting [1] lay in the range of 1 to 5 µM.
On the same count and under the same terms, with `COC1(C2C(=O)Nc3c(C)nc(N[C@H]4C[C@@H](Cn5nccc5C(F)(F)F)C4)nc3N2C)CC1` (relative stereo) [Compound 676, 7-(1-methoxycyclopropyl)-4,8-dimethyl-2-((cis-3-((5-(trifluoromethyl)-1H-pyrazol-1-yl)methyl)cyclobutyl)amino)-7,8-dihydropteridin-6(5H)-one] the figure was < 0.3 µM; with `Cc1nc(NCc2cnn(C3CCN(C(=O)c4cc(F)c(F)c(F)c4)CC3)c2)nc2c1NC(=O)[C@H](C)N2C` [Compound 124, (7S)-4,7,8-Trimethyl-2-(((1-(1-(3,4,5-trifluorobenzoyl)piperidin-4-yl)-1H-pyrazol-4-yl)methyl)amino)-7,8-dihydropteridin-6(5H)-one], 0.3 to 1 µM.
Consider `Cc1nc(N[C@H]2C[C@H](Oc3cc(F)c(F)c(F)c3)C2)nc2c1NC(=O)[C@@H](CO)N2C` [Compound I-1650], for which the IC50 (Homo sapiens, COLO 205, 5 h, R-isomer at C2 (corresponding to C2 S-isomer), Colo 205 TCF/LEF luciferase reporter, 5 h, read-out: TCF reporter Colo205 IC50) fell in the range of 1 to 5 µM.
As to `Cc1nc(NCc2cnn(Cc3ccc(C(F)(F)F)nc3)c2)nc2c1NC(=O)[C@H]([C@@H](C)O)N2C` [Compound 744, (S)-7-((R)-1-hydroxyethyl)-4,8-dimethyl-2-(((1-((6-(trifluoromethyl)pyridin-3-yl)methyl)-1H-pyrazol-4-yl)methyl)amino)-7,8-dihydropteridin-6(5H)-one], under setting [1], the IC50 fell in the range of 0.3 to 1 µM.
Still for that read-out and setting: to `Cc1nc(NCc2cnn(Cc3ccc(C#N)cc3)c2)nc2c1NC(=O)[C@H](C)N2C` [Compound 55, (7S)-4-((4-(((4,7,8-trimethyl-6-oxo-5,6,7,8-tetrahydropteridin-2-yl)amino)methyl)-1H-pyrazol-1-yl)methyl)benzonitrile] belongs < 0.3 µM; to `Cc1nc(N[C@H]2C[C@H](Oc3ccc(F)c(F)c3F)C2)nc2c1N(C)C(=O)[C@H](C)N2C` [Compound 293, (7S)-4,5,7,8-tetramethyl-2-((trans-3-(2,3,4-trifluorophenoxy)cyclobutyl)-amino)-7,8-dihydropteridin-6(5H)-one], < 0.3 µM; to `Cc1nc(NCc2cnn(Cc3ccc(F)cc3C#N)c2)nc2c1NC(=O)[C@H](C)N2C` [Compound 64, (7S)-5-fluoro-2-((4-(((4,7,8-trimethyl-6-oxo-5,6,7,8-tetrahydropteridin-2-yl)amino)methyl)-1H-pyrazol-1-yl)methyl)benzonitrile], < 0.3 µM.
For the compound `Cc1nc(N[C@H]2C[C@H](Oc3ccc(F)cc3F)C2)nc2c1N(C)C(=O)[C@H](C)N2C` [Compound 296, (7S)-2-((trans-3-(2,4-difluorophenoxy)cyclobutyl)amino)-4,5,7,8-tetramethyl-7,8-dihydropteridin-6(5H)-one], the IC50 under setting [1] is < 0.3 µM.
For `Cc1nc(N[C@@H]2CCc3nn(Cc4ccc(C(F)(F)F)nc4)cc32)nc2c1NC(=O)[C@H](C)N2C` [Compound 547, (7S)-4,7,8-trimethyl-2-(((R)-2-((6-(trifluoromethyl)pyridin-3-yl)methyl)-2,4,5,6-tetrahydrocyclopenta[c]pyrazol-4-yl)amino)-7,8-dihydropteridin-6(5H)-one], the IC50 under setting [1] was in the range of 1 to 5 µM.
Consider `Cc1nc(NC2CN(C(=O)[C@H](C)c3ccccc3)C2)nc2c1NC(=O)[C@H](C(C)C)N2C` [Compound 627, (S)-7-isopropyl-4,8-dimethyl-2-((1-((R)-2-phenylpropanoyl)azetidin-3-yl)amino)-7,8-dihydropteridin-6(5H)-one], for which, under setting [1], the IC50 lay in the range of 1 to 5 µM.
Consider `Cc1nc(N[C@H]2C[C@@H](Sc3cc(F)c(F)c(F)c3)C2)nc2c1N(C)C(=O)[C@H](C)N2C` [Compound 331, (7S)-4,5,7,8-tetramethyl-2-((cis-3-((3,4,5-trifluorophenyl)thio)cyclobutyl)amino)-7,8-dihydropteridin-6(5H)-one], for which, under setting [1], the IC50 was < 0.3 µM.
Regarding `Cc1nc(NC2CN(C(=O)C3CC4CCC3C4)C2)nc2c1NC(=O)[C@H](C(C)C)N2C` (stereo partly drawn) [Compound 639, (7S)-2-((1-(bicyclo[2.2.1]heptane-2-carbonyl)azetidin-3-yl)amino)-7-isopropyl-4,8-dimethyl-7,8-dihydropteridin-6(5H)-one], under setting [1], the IC50 fell in the range of 1 to 5 µM.
For `COc1cc(F)ccc1O[C@H]1C[C@H](Nc2nc(C)c3c(n2)N(C)[C@@H](C)C(=O)N3)C1` [Compound 344, (7S)-2-((trans-3-(4-fluoro-2-methoxyphenoxy)cyclobutyl)amino)-4,7,8-trimethyl-7,8-dihydropteridin-6(5H)-one], under setting [1], the IC50 was in the range of 0.3 to 1 µM.
`CCOc1ccc(CCn2cc(CNc3nc(C)c4c(n3)N(C)[C@@H](C)C(=O)N4)cn2)cc1` [Compound 108, (7S)-2-(((1-(4-ethoxyphenethyl)-1H-pyrazol-4-yl)methyl)amino)-4,7,8-trimethyl-7,8-dihydropteridin-6(5H)-one]: under setting [1], the IC50 was 0.3 to 1 µM.
`CO[C@@H](C(=O)N1CC(Nc2nc(C)c3c(n2)N(C)[C@@H](C(C)C)C(=O)N3)C1)c1ccccc1` [Compound 634, (S)-7-isopropyl-2-((1-((R)-2-methoxy-2-phenylacetyl)azetidin-3-yl)amino)-4,8-dimethyl-7,8-dihydropteridin-6(5H)-one]: under setting [1], the IC50 is ≥ 5 µM.
For the compound `Cc1nc(N(Cc2cnn(Cc3ccc(C(F)(F)F)nc3)c2)C(=O)[C@@H](N)C(C)C)nc2c1NC(=O)[C@H](C)N2C` [Compound 402, (S)-2-amino-3-methyl-N-((1-((6-(trifluoromethyl)pyridin-3-yl)methyl)-1H-pyrazol-4-yl)methyl)-N-((S)-4,7,8-trimethyl-6-oxo-5,6,7,8-tetrahydropteridin-2-yl)butanamide], the IC50 (Homo sapiens, COLO 205, 5 h, Colo 205 cells with stably transfected TCF/LEF luciferase reporter, five hours after addition of compound, read-out: TCF reporter Colo205) was ≥ 5 µM.
As for `C[C@H]1C(=O)Nc2cnc(NCc3cnn(CCc4cc(F)cc(F)c4)c3)nc2N1C` [Compound 120, (7S)-2-(((1-(3,5-difluorophenethyl)-1H-pyrazol-4-yl)methyl)amino)-7,8-dimethyl-7,8-dihydropteridin-6(5H)-one], the IC50 under setting [1] lay within 0.3 to 1 µM.
Consider `CN1C(=O)C2(CC2)N(C)c2nc(NCc3cnn(Cc4ccc(F)cc4)c3)ncc21` [Compound 227, 2′-(((1-(4-fluorobenzyl)-1H-pyrazol-4-yl)methyl)amino)-5′,8′-dimethyl-5′,8′-dihydro-6′H-spiro[cyclopropane-1,7′-pteridin]-6′-one], for which, under setting [1], the IC50 lay within 0.3 to 1 µM.
Consider `Cc1nc(NC2CN(C(=O)Cc3ccc(F)cc3)C2)nc2c1NC(=O)[C@H](C(C)C)N2C` [Compound 618, (S)-2-((1-(2-(4-fluorophenyl)acetyl)azetidin-3-yl)amino)-7-isopropyl-4,8-dimethyl-7,8-dihydropteridin-6(5H)-one], for which, under setting [1], the IC50 was 0.3 to 1 µM.

The values are drawn from US20230312587A1, “PTERIDINONE COMPOUNDS AND USES THEREOF” (Vertex Pharmaceutical Incorporated, priority 2018, published 2023).
